Measurements taken from ChEMBL document CHEMBL4219201, “Secoiridoid analogues from the fruits of Ligustrum lucidum and their inhibitory activities against influenza A virus” (Bioorg Med Chem Lett, 2018).
Calls of active or inactive are those of the source. The rule behind the calls is not given here.

Assays:
Influenza A virus [1] = experiment: Antiviral activity against Influenza A virus (A/WSN/1933(H1N1)) infected in MDCK cells cocultured with human 293T-Gluc cells at 100 uM preincubated with compound for 2 hrs followed by virus infection measured after 24 hrs by luciferase reporter gene assay relative to control; format: functional
Influenza A virus [2] = experiment: Antiviral activity against Influenza A virus (A/WSN/1933(H1N1)) infected in MDCK cells cocultured with human 293T-Gluc cells at 20 uM preincubated with compound for 2 hrs followed by virus infection measured after 24 hrs by luciferase reporter gene assay relative to control; format: functional
Influenza A virus [3] = experiment: Antiviral activity against Influenza A virus (A/WSN/1933(H1N1)) infected in MDCK cells cocultured with human 293T-Gluc cells preincubated with compound for 2 hrs followed by virus infection measured after 24 hrs by luciferase reporter gene assay; format: functional, organism-based
[4] = Cytotoxicity against MDCK cells assessed as reduction in cell viability by CCK8 assay; format: cell-based, Canis lupus familiaris; details: dog

For `C/C=C1/[C@H](O[C@@H]2O[C@H](CO[C@@H]3O[C@H](CO)[C@@H](O)[C@H](O)[C@H]3O)[C@@H](O)[C@H](O)[C@H]2O)OC=C(C(=O)OC)[C@H]1CC(=O)OCCc1ccc(O)cc1`, the inhibition at 100 µM (Influenza A virus [1]) was 60.8% and the inhibition at 20 µM (Influenza A virus [2]) was 17.8%.
`NC(=O)c1ncn([C@@H]2O[C@H](CO)[C@@H](O)[C@H]2O)n1` [RIBAVIRIN] showed an IC50 (Influenza A virus [3]) of 22.6 µM.
Molecule `C=C[C@H]1[C@H](O[C@@H]2O[C@H](COC(=O)/C=C/c3ccccc3)[C@@H](O)[C@H](O)[C@H]2O)OC=C(C(=O)O)[C@H]1CC(=O)O` has an IC50 (Influenza A virus [3]) of 16.5 µM, a CC50 [4] of 80.5 µM and an inhibition at 100 µM (Influenza A virus [1]) of 73.9%. It also gave an inhibition at 20 µM (Influenza A virus [2]) of 60.8%.
In the case of `COC(=O)C1=CO[C@@H](O[C@@H]2O[C@H](CO)[C@@H](O)[C@H](O)[C@H]2O)/C(=C/C(=O)O)[C@@H]1CC(=O)OCCc1ccc(O)cc1`, the IC50 (Influenza A virus [3]) is reported as 12.5 µM, the CC50 [4] is reported as > 100 µM and the inhibition at 100 µM (Influenza A virus [1]) is reported as 81.7%. It also gave an inhibition at 20 µM (Influenza A virus [2]) of 60.4%.
In the case of `CCOC(=O)C[C@@H]1C(C(=O)OC)=CO[C@@H](C)[C@@H]1C=O`, the IC50 (Influenza A virus [3]) is reported as 18.5 µM, the CC50 [4] is reported as 90.8 µM and the inhibition at 100 µM (Influenza A virus [1]) is reported as 96.8%. The inhibition at 20 µM (Influenza A virus [2]) was 55.8%.
`C[C@H]1OC(=O)CC2C(C(=O)O)=CO[C@@H](O[C@@H]3O[C@H](COC(=O)/C=C/c4ccccc4)[C@@H](O)[C@H](O)[C@H]3O)C21` (stereo partly specified) gave an inhibition at 100 µM (Influenza A virus [1]) of 33.3% and an inhibition at 20 µM (Influenza A virus [2]) of 35.6%.
For `C/C=C1/[C@H]2OC=C(C(=O)OC)[C@H]1CC(=O)OC[C@@H](c1ccc(O)c(O)c1)OC[C@H]1O[C@@H](O2)[C@H](O)[C@@H](O)[C@@H]1O`, the inhibition (Influenza A virus [1]) was “inactive” and the inhibition (Influenza A virus [2]) was “inactive”.
In the case of `C/C=C1/[C@H]2OC=C(C(=O)OC)[C@H]1CC(=O)OC[C@H](c1ccc(O)c(O)c1)OC[C@H]1O[C@@H](O2)[C@H](O)[C@@H](O)[C@@H]1O`, the inhibition (Influenza A virus [1]) is reported as “inactive” and the inhibition (Influenza A virus [2]) is reported as “inactive”.
With `COC(=O)C1=CO[C@@H](O[C@@H]2O[C@H](CO)[C@@H](O)[C@H](O)[C@H]2O)[C@@](O)(CC(=O)O)[C@@H]1CC(=O)O` the inhibition at 100 µM (Influenza A virus [1]) was 76.2% and the inhibition at 20 µM (Influenza A virus [2]) was 29.4%.
For `COC(=O)C[C@@H]1C(C(=O)OC)=CO[C@@H](C)[C@@H]1C(OC)OC`, the inhibition (Influenza A virus [1]) was “inactive” and the inhibition (Influenza A virus [2]) was “inactive”.
For `COC(=O)C1=CO[C@@H](O[C@@H]2O[C@H](CO)[C@@H](O)[C@H](O)[C@H]2O)/C(=C/C(=O)O)[C@@H]1CC(=O)OCCc1ccc(O)c(O)c1`, the IC50 (Influenza A virus [3]) was 13.1 µM, the CC50 [4] was > 100 µM and the inhibition at 100 µM (Influenza A virus [1]) was 83.2%. For the same molecule, the inhibition at 20 µM (Influenza A virus [2]) was 63.1%.
With `C=C[C@H]1[C@H](O[C@@H]2O[C@H](COC(=O)/C=C/c3ccccc3)[C@@H](O)[C@H](O)[C@H]2O)OC=C(C(=O)O)[C@H]1CC(=O)OC` the inhibition (Influenza A virus [1]) was “inactive” and the inhibition (Influenza A virus [2]) was “inactive”.
